According to patent US20240158446A1, “CYCLIC COMPOUND HAVING SELECTIVE INHIBITORY ACTION ON KRAS OVER HRAS AND NRAS” (CHUGAI SEIYAKU KABUSHIKI KAISHA, priority 2021, published 2024):

Tests used:
[1] = target: GDP-bound HRAS wild-type protein (Homo sapiens, UniProt P01112); assay: Binding to HRAS by surface plasmon resonance (SPR), Single Cycle Kinetics; conditions: SPR, GDP-bound HRAS wild-type protein vs GDP-bound KRAS wild-type protein
[2] = target: GDP-bound KRAS wild-type protein (Homo sapiens, UniProt P01116); assay: Binding to KRAS by surface plasmon resonance (SPR), Single Cycle Kinetics; conditions: SPR Single Cycle Kinetics, GDP-bound KRAS wild-type protein, 1:1 binding model; read-out: KRAS KD
[3] = target: GDP-bound NRAS wild-type protein (Homo sapiens, UniProt P01111); assay: Binding to NRAS by surface plasmon resonance (SPR), Single Cycle Kinetics; conditions: SPR, GDP-bound NRAS wild-type protein vs GDP-bound KRAS wild-type protein
GDP-bound NRAS wild-type protein, sequence (P01111 whole entry): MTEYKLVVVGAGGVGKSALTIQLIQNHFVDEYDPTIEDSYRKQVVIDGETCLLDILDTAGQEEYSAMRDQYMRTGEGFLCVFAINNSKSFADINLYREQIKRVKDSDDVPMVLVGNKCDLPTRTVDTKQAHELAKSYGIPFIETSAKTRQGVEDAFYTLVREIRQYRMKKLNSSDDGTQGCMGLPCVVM

GDP-bound HRAS wild-type protein, sequence (P01112 whole entry): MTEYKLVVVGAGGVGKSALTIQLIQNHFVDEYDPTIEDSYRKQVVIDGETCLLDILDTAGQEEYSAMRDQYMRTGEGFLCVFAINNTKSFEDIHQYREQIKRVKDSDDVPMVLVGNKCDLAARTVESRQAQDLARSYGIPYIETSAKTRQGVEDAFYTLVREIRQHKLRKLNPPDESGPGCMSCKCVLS
GDP-bound KRAS wild-type protein, sequence (P01116 whole entry): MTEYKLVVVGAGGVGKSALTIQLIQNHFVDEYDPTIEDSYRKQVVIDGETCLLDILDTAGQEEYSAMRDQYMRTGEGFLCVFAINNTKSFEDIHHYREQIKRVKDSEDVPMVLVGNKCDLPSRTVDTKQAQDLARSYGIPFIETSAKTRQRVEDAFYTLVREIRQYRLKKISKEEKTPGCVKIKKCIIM

| SMILES | HRAS/KRAS (ratio of KD value with respect to HRAS to KD value with respect to KRAS) [1] | Kd [2] | NRAS/KRAS (ratio of KD value with respect to NRAS to KD value with respect to KRAS) [3] |
| --- | --- | --- | --- |
| CC[C@H](C)[C@@H]1NC(=O)[C@H](CC(C)C)N(C)C(=O)C[C@@H](C(=O)N2CCOCC2)N(C)C(=O)[C@H](C2CCCC2)N(C)C(=O)C2(CCCC2)NC(=O)[C@@H]2CCCN2C(=O)[C@H](CCc2ccc(C(F)(F)F)c(Cl)c2)NC(=O)CN(C)C(=O)[C@H](Cc2ccc(OC)cc2)N2CC=CC[C@@H](C2=O)N(C)C(=O)CN(C)C1=O [PP0535] | B (a compound having 3 or more and less than 10 is denoted as B) | 0.5 nM | C (A compound having a KD ratio of 0.1 or more and less than 3 is denoted as C) |
| CC[C@H](C)[C@@H]1NC(=O)[C@H](CC(C)C)N(C)C(=O)C[C@@H](C(=O)N2CCOCC2)N(C)C(=O)[C@H](C2CCCC2)N(C)C(=O)C2(CCCC2)NC(=O)[C@@H]2CCCN2C(=O)[C@H](CCc2ccc(C(F)(F)F)c(Cl)c2)NC(=O)CN(C)C(=O)[C@H](Cc2ccc(OC(F)(F)F)cc2)N2CCCC[C@@H](C2=O)N(C)C(=O)CN(C)C1=O [PP0536] | B (a compound having 3 or more and less than 10 is denoted as B) | 0.63 nM | B (a compound having 3 or more and less than 10 is denoted as B) |
| CC[C@H](C)[C@@H]1NC(=O)[C@H](CC(C)C)N(C)C(=O)C[C@@H](C(=O)N2CCOCC2)N(C)C(=O)[C@H](C2CCCC2)N(C)C(=O)C2(CCCC2)NC(=O)[C@@H]2CCCN2C(=O)[C@H](CCc2ccc(C(F)(F)F)c(Cl)c2)NC(=O)CN(C)C(=O)[C@H](Cc2ccc(OC(F)(F)F)cc2)N2CC=CC[C@@H](C2=O)N(C)C(=O)CN(C)C1=O [PP0537] | C (A compound having a KD ratio of 0.1 or more and less than 3 is denoted as C) | 5.8 nM | C (A compound having a KD ratio of 0.1 or more and less than 3 is denoted as C) |
| CC[C@H](C)[C@@H]1NC(=O)[C@H](CC(C)C)N(C)C(=O)C[C@@H](C(=O)N2CCOCC2)N(C)C(=O)[C@H](C2CCCC2)N(CC)C(=O)C2(CCCC2)NC(=O)[C@@H]2CCCN2C(=O)[C@H](CCc2cc(F)c(C(F)(F)F)c(F)c2)NC(=O)CN(C)C(=O)[C@H](Cc2ccc(C(F)(F)F)cc2)N2CCCC[C@@H](C2=O)N(C)C(=O)CN(C)C1=O [PP0538] | B (a compound having 3 or more and less than 10 is denoted as B) | 0.67 nM | B (a compound having 3 or more and less than 10 is denoted as B) |
| CC[C@H](C)[C@@H]1NC(=O)[C@H](CC(C)C)N(C)C(=O)C[C@@H](C(=O)N2CCOCC2)N(CC)C(=O)[C@H](C2CCCC2)N(C)C(=O)C2(CCCC2)NC(=O)[C@@H]2CCCN2C(=O)[C@H](CCc2cc(F)c(C(F)(F)F)c(F)c2)NC(=O)CN(C)C(=O)[C@H](Cc2ccc(C(F)(F)F)cc2)N2CCCC[C@@H](C2=O)N(C)C(=O)CN(C)C1=O [PP0539] | B (a compound having 3 or more and less than 10 is denoted as B) | 0.17 nM | B (a compound having 3 or more and less than 10 is denoted as B) |
| CC[C@H](C)[C@@H]1NC(=O)[C@H](CC(C)C)N(C)C(=O)C[C@@H](C(=O)N2CCOCC2)N(C)C(=O)[C@H](C2CCCC2)NC(=O)C2(CCCC2)NC(=O)[C@@H]2CCCN2C(=O)[C@H](CCc2cc(F)c(C(F)(F)F)c(F)c2)NC(=O)CN(C)C(=O)[C@H](Cc2ccc(C(F)(F)F)cc2)N2CCCC[C@@H](C2=O)N(C)C(=O)CN(C)C1=O [PP0540] | B (a compound having 3 or more and less than 10 is denoted as B) | 17 nM | B (a compound having 3 or more and less than 10 is denoted as B) |
| CC[C@H](C)[C@@H]1NC(=O)[C@H](CC(C)C)N(C)C(=O)C[C@@H](C(=O)N2CCOCC2)N(C)C(=O)[C@H](C2CCCC2)N(C)C(=O)C2(CCCC2)NC(=O)[C@@H]2CCCN2C(=O)[C@H](CCc2cc(F)c(C(F)(F)F)c(F)c2)NC(=O)CN(C)C(=O)[C@H](Cc2ccc(C(F)(F)F)cc2)N2CCCC[C@@H](C2=O)N(C)C(=O)CNC1=O [PP0542] | B (a compound having 3 or more and less than 10 is denoted as B) | 0.11 nM | B (a compound having 3 or more and less than 10 is denoted as B) |
| CC[C@H](C)[C@@H]1NC(=O)[C@H](CC(C)C)N(C)C(=O)C[C@@H](C(=O)N2CCOCC2)N(C)C(=O)[C@H](C2CCCC2)N(C)C(=O)C2(CCCC2)NC(=O)[C@@H]2CCCN2C(=O)[C@H](CCc2cc(F)c(C(F)(F)F)c(F)c2)NC(=O)CN(C)C(=O)[C@H](Cc2ccc(C(F)(F)F)cc2)N2CCCC[C@@H](C2=O)N(C)C(=O)[C@H](C)NC1=O [PP0543] | B (a compound having 3 or more and less than 10 is denoted as B) | 1 nM | B (a compound having 3 or more and less than 10 is denoted as B) |
| CC[C@H](C)[C@@H]1NC(=O)[C@H](CC(C)C)N(C)C(=O)C[C@@H](C(=O)N2CCOCC2)N(C)C(=O)[C@H](C2CCCC2)N(C)C(=O)C2(CCCC2)NC(=O)[C@@H]2CCCN2C(=O)[C@H](CCc2cc(F)c(C(F)(F)F)c(F)c2)NC(=O)CN(C)C(=O)[C@H](Cc2ccc(C(F)(F)F)cc2)N2CCCC[C@@H](C2=O)N(C)C(=O)[C@H](C)N(C)C1=O [PP0544] | B (a compound having 3 or more and less than 10 is denoted as B) | 18 nM | B (a compound having 3 or more and less than 10 is denoted as B) |
| CC[C@H](C)[C@@H]1NC(=O)[C@H](CC(C)C)N(C)C(=O)C[C@@H](C(=O)N2CCOCC2)N(C)C(=O)[C@H](C2CCCC2)N(C)C(=O)C2(CCCC2)NC(=O)[C@@H]2CCCN2C(=O)[C@H](CCc2cc(F)c(C(F)(F)F)c(F)c2)NC(=O)CN(C)C(=O)[C@H](Cc2ccc(C(F)(F)F)cc2)N2CCCC[C@@H](C2=O)N(C)C(=O)CN(CC)C1=O [PP0545] | B (a compound having 3 or more and less than 10 is denoted as B) | 0.24 nM | B (a compound having 3 or more and less than 10 is denoted as B) |
| CC[C@H](C)[C@@H]1NC(=O)[C@H](CC(C)C)N(C)C(=O)C[C@@H](C(=O)N2CCOCC2)N(C)C(=O)[C@H](C2CCCC2)N(C)C(=O)C2(CCCC2)NC(=O)[C@@H]2CCCN2C(=O)[C@H](CCc2cc(F)c(C(F)(F)F)c(F)c2)NC(=O)CN(C)C(=O)[C@H](Cc2ccc(C(F)(F)F)cc2)N2CCCC[C@@H](C2=O)N(C)C(=O)[C@@H]2CCCN2C1=O [PP0547] | B (a compound having 3 or more and less than 10 is denoted as B) | 0.36 nM | B (a compound having 3 or more and less than 10 is denoted as B) |
| CC[C@H](C)[C@@H]1NC(=O)[C@H](CC(C)C)N(C)C(=O)C[C@@H](C(=O)N2CCOCC2)N(C)C(=O)[C@H](C2CCCC2)N(C)C(=O)C2(CCCC2)NC(=O)[C@@H]2CCCN2C(=O)[C@H](CCc2cc(F)c(C(F)(F)F)c(F)c2)NC(=O)CN(C)C(=O)[C@H](Cc2ccc(C(F)(F)F)cc2)N2CCCC[C@@H](C2=O)N(C)C(=O)[C@@H]2CCCCN2C1=O [PP0548] | B (a compound having 3 or more and less than 10 is denoted as B) | 15 nM | C (A compound having a KD ratio of 0.1 or more and less than 3 is denoted as C) |
| CC[C@H](C)[C@@H]1NC(=O)[C@H](C)N(C)C(=O)C[C@@H](C(=O)N2CCOCC2)N(C)C(=O)[C@H](C2CCCC2)N(C)C(=O)C2(CCCC2)NC(=O)[C@@H]2CCCN2C(=O)[C@H](CCc2cc(F)c(C(F)(F)F)c(F)c2)NC(=O)CN(C)C(=O)[C@H](Cc2ccc(C(F)(F)F)cc2)N2CCCC[C@@H](C2=O)N(C)C(=O)CN(C)C1=O [PP0549] | B (a compound having 3 or more and less than 10 is denoted as B) | 0.062 nM | C (A compound having a KD ratio of 0.1 or more and less than 3 is denoted as C) |
| CC[C@H](C)[C@@H]1NC(=O)[C@H](CC(C)C)N(C)C(=O)C[C@@H](C(=O)N2CCOCC2)N(C)C(=O)[C@H](C2CCCC2)N(C)C(=O)C2(CCCC2)NC(=O)[C@@H]2CCCN2C(=O)[C@H](CCc2cc(F)c(C(F)(F)F)c(F)c2)NC(=O)CN(C)C(=O)[C@H](Cc2ccc(C(F)(F)F)cc2)N2CCCC[C@@H](C2=O)N(C)C(=O)CN(C)C1=O [PP0552] | B (a compound having 3 or more and less than 10 is denoted as B) | 0.052 nM | B (a compound having 3 or more and less than 10 is denoted as B) |
| CCO[C@@H]1C[C@H]2C(=O)NC3(CCCC3)C(=O)N(C)[C@@H](C3CCCC3)C(=O)N(C)[C@H](C(=O)N3CCOCC3)CC(=O)N(C)[C@@H](CC(C)C)C(=O)N[C@@H]([C@@H](C)CC)C(=O)N(C)CC(=O)N(C)[C@H]3CCCCN(C3=O)[C@@H](Cc3ccc(C(F)(F)F)cc3)C(=O)N(C)CC(=O)N[C@@H](CCc3cc(F)c(C(F)(F)F)c(F)c3)C(=O)N2C1 [PP0554] | B (a compound having 3 or more and less than 10 is denoted as B) | 0.036 nM | B (a compound having 3 or more and less than 10 is denoted as B) |
